Measured values from ChEMBL document CHEMBL1926681, “Novel inhibitors of epidermal growth factor receptor: (4-(Arylamino)-7H-pyrrolo[2,3-d]pyrimidin-6-yl)(1H-indol-2-yl)methanones and (1H-indol-2-yl)(4-(phenylamino)thieno[2,3-d]pyrimidin-6-yl)methanones” (Bioorg Med Chem, 2012).
Blank lines part the entries; values can stand above or below the molecule they belong to. The source made the active and inactive calls. The calls are words filed in the database; no cut-off is given here.

Legend:
[1] = Cytotoxicity against human PC3M cells after 4 days by propidium iodide staining-based fluorometric analysis; format: functional, cell-based; conditions: PC-3M, 96 h
[2] = Cytotoxicity against human OVXF 899L cells after 4 days by propidium iodide staining-based fluorometric analysis; format: functional, cell-based; conditions: 96 h
[3] = Cytotoxicity against human PXF 698L cells after 4 days by propidium iodide staining-based fluorometric analysis; format: functional, cell-based; conditions: 96 h
[4] = Cytotoxicity against human MEXF 462NL cells after 4 days by propidium iodide staining-based fluorometric analysis; format: functional, cell-based; conditions: 96 h
[5] = Cytotoxicity against human PXF 1752L cells after 4 days by propidium iodide staining-based fluorometric analysis; format: functional, cell-based; conditions: 96 h
SAOS-2 = assay: Cytotoxicity against human Saos2 cells after 4 days by propidium iodide staining-based fluorometric analysis; format: functional, cell-based; conditions: SAOS-2, 96 h, read-out: IC50
HCT-116 = assay: Cytotoxicity against human HCT116 cells after 4 days by propidium iodide staining-based fluorometric analysis; format: functional, cell-based; conditions: HCT-116, 96 h
[6] = Cytotoxicity against human RXF 486L cells after 4 days by propidium iodide staining-based fluorometric analysis; format: functional, cell-based; conditions: 96 h
[7] = Cytotoxicity against human LXFL 1121L cells after 4 days by propidium iodide staining-based fluorometric analysis; format: functional, cell-based; conditions: 96 h
[8] = Cytotoxicity against human BXF 1218L cells after 4 days by propidium iodide staining-based fluorometric analysis; format: functional, cell-based; conditions: 96 h
[9] = Cytotoxicity against human LIXF 575L cells after 4 days by propidium iodide staining-based fluorometric analysis; format: functional, cell-based; conditions: 96 h
[10] = Cytotoxicity against human RXF 1781L cells after 4 days by propidium iodide staining-based fluorometric analysis; format: functional, cell-based; conditions: 96 h
[11] = target: T1, Epidermal growth factor receptor (Homo sapiens, UniProt P00533); assay: Inhibition of EGFR autophosphorylation in EGF-stimulated human A431 cells after 1 hr by immunoblotting; format: cell-based, A-431
[12] = Cytotoxicity against human LXFL 529L cells after 4 days by propidium iodide staining-based fluorometric analysis; format: functional, cell-based; conditions: 96 h
[13] = Cytotoxicity against human PAXF 546L cells after 4 days by propidium iodide staining-based fluorometric analysis; format: functional, cell-based; conditions: 96 h
MCF7 = assay: Cytotoxicity against human MCF7 cells after 4 days by propidium iodide staining-based fluorometric analysis; format: functional, cell-based; conditions: MCF7, 96 h
CWR22R = assay: Cytotoxicity against human 22Rv1 cells after 4 days by propidium iodide staining-based fluorometric analysis; format: functional, cell-based; conditions: 22Rv1, 96 h
[14] = Cytotoxicity against human CXF 269L cells after 4 days by propidium iodide staining-based fluorometric analysis; format: functional, cell-based; conditions: 96 h
OVCAR-3 = assay: Cytotoxicity against human OVCAR3 cells after 4 days by propidium iodide staining-based fluorometric analysis; format: functional, cell-based; conditions: OVCAR-3, 96 h
[15] = Cytotoxicity against human RXF 393NL cells after 4 days by propidium iodide staining-based fluorometric analysis; format: functional, cell-based; conditions: 96 h
[16] = Cytotoxicity against human BXF 1352L cells after 4 days by propidium iodide staining-based fluorometric analysis; format: functional, cell-based; conditions: 96 h
LNCaP = assay: Cytotoxicity against human LNCAP cells after 4 days by propidium iodide staining-based fluorometric analysis; format: functional, cell-based; conditions: 96 h
[17] = Cytotoxicity against human LXFA 289L cells after 4 days by propidium iodide staining-based fluorometric analysis; format: functional, cell-based; conditions: 96 h
[18] = target: Hepatocyte growth factor receptor (Homo sapiens) (UniProt P08581); assay: Inhibition of MET using poly(Ala, Glu, Lys, Tyr) as substrate and [gamma33P]ATP at 1 uM after 60 mins by scintillation counting
[19] = Cytotoxicity against human BXF T24 cells after 4 days by propidium iodide staining-based fluorometric analysis; format: functional, cell-based; conditions: T-24, 96 h
[20] = target: T1, Epidermal growth factor receptor; assay: Inhibition of EGFR using poly(Glu,Tyr)4:1 as substrate and [gamma33P]ATP after 60 mins by scintillation counting
[21] = Cytotoxicity against human MDA231 cells after 4 days by propidium iodide staining-based fluorometric analysis; format: functional, cell-based; conditions: MDA-MB-231, 96 h
[22] = Cytotoxicity against human MEXF 276L cells after 4 days by propidium iodide staining-based fluorometric analysis; format: functional, cell-based; conditions: MEXF276L, 96 h
[23] = Cytotoxicity against human MAXF 401NL cells after 4 days by propidium iodide staining-based fluorometric analysis; format: functional, cell-based; conditions: 96 h
MKN-45 = assay: Cytotoxicity against human MKN45 cells after 4 days by propidium iodide staining-based fluorometric analysis; format: functional, cell-based; conditions: MKN-45, 96 h
TE-671 = assay: Cytotoxicity against human TE671 cells after 4 days by propidium iodide staining-based fluorometric analysis; format: functional, cell-based; conditions: TE-671, 96 h
[24] = target: Receptor tyrosine-protein kinase erbB-2 (Homo sapiens) (UniProt P04626); assay: Inhibition of Erbb2 using poly(Glu,Tyr)4:1 as substrate and [gamma33P]ATP at 1 uM after 60 mins by scintillation counting
[25] = Cytotoxicity against human UXF 1138L cells after 4 days by propidium iodide staining-based fluorometric analysis; format: functional, cell-based; conditions: 96 h
[26] = Cytotoxicity against human PXF 1118L cells after 4 days by propidium iodide staining-based fluorometric analysis; format: functional, cell-based; conditions: 96 h
CAL-27 = assay: Cytotoxicity against human CAL27 cells after 4 days by propidium iodide staining-based fluorometric analysis; format: functional, cell-based; conditions: CAL-27, 96 h
[27] = Cytotoxicity against human LXFA 526L cells after 4 days by propidium iodide staining-based fluorometric analysis; format: functional, cell-based; conditions: 96 h
[28] = target: T1, Epidermal growth factor receptor; assay: Inhibition of EGFR using poly(Glu,Tyr)4:1 as substrate and [gamma33P]ATP at 1 uM after 60 mins by scintillation counting
RKO = assay: Cytotoxicity against human RKO cells after 4 days by propidium iodide staining-based fluorometric analysis; format: functional, cell-based; conditions: 96 h
[29] = target: Tyrosine-protein kinase ABL1 (Homo sapiens) (UniProt P00519); assay: Inhibition of ABL1 using poly(Ala, Glu, Lys, Tyr) as substrate and [gamma33P]ATP at 1 uM after 60 mins by scintillation counting
HT-29 = assay: Cytotoxicity against human HT-29 cells after 4 days by propidium iodide staining-based fluorometric analysis; format: functional, cell-based; conditions: HT-29, 96 h
[30] = Cytotoxicity against human DIFI cells after 4 days by propidium iodide staining-based fluorometric analysis; format: functional, cell-based; conditions: 96 h
[31] = Cytotoxicity against human MEXF 1341L cells after 4 days by propidium iodide staining-based fluorometric analysis; format: functional, cell-based; conditions: 96 h
[32] = Cytotoxicity against human PAXF 1657L cells after 4 days by propidium iodide staining-based fluorometric analysis; format: functional, cell-based; conditions: 96 h
[33] = Cytotoxicity against human LXFA 629L cells after 4 days by propidium iodide staining-based fluorometric analysis; format: functional, cell-based; conditions: 96 h
NCI-H460 = assay: Cytotoxicity against human H460 cells after 4 days by propidium iodide staining-based fluorometric analysis; format: functional, cell-based; conditions: NCI-H460, 96 h
PANC-1 = assay: Cytotoxicity against human PANC1 cells after 4 days by propidium iodide staining-based fluorometric analysis; format: functional, cell-based; conditions: PANC-1, 96 h
[34] = Cytotoxicity against human GXF251L cells after 4 days by propidium iodide staining-based fluorometric analysis; format: functional, cell-based; conditions: GXF 251L, 96 h
[35] = target: Vascular endothelial growth factor receptor 2 (Homo sapiens) (UniProt P35968); assay: Inhibition of VEGFR2 using poly(Glu,Tyr)4:1 as substrate and [gamma33P]ATP at 1 uM after 60 mins by scintillation counting
DU-145 = assay: Cytotoxicity against human DU145 cells after 4 days by propidium iodide staining-based fluorometric analysis; format: functional, cell-based; conditions: DU-145, 96 h

T1 sequence (P00533 whole entry): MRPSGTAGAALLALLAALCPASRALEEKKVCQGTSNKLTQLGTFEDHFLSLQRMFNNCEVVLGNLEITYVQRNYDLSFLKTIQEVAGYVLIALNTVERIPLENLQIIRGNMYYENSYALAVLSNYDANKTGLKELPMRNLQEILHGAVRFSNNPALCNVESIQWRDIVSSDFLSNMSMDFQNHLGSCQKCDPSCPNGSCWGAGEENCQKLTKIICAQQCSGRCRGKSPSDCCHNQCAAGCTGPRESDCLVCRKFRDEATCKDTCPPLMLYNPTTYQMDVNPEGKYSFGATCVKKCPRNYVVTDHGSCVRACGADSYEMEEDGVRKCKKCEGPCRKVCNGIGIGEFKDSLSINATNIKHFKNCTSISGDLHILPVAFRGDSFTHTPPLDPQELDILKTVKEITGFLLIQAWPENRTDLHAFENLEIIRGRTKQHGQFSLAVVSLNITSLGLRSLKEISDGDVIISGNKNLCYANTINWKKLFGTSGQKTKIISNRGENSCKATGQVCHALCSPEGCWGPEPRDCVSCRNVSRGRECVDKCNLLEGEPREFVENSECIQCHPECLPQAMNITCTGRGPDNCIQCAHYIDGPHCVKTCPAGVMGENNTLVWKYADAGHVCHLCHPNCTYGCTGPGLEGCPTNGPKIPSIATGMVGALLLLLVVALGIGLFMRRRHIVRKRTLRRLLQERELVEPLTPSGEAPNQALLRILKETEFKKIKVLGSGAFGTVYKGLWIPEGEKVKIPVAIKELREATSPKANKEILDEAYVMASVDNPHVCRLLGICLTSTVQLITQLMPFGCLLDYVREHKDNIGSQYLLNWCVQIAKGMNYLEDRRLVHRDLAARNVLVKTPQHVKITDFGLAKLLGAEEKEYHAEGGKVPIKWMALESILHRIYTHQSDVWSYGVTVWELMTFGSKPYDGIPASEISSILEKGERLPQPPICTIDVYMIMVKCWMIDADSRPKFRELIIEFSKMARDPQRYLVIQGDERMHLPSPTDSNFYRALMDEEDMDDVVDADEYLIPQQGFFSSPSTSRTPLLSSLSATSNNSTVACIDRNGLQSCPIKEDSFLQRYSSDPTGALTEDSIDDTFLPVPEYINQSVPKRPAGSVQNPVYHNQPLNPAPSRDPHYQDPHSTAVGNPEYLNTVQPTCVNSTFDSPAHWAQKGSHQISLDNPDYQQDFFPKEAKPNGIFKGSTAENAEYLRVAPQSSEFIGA
Chain of Vascular endothelial growth factor receptor 2 (Homo sapiens) (P35968 whole entry): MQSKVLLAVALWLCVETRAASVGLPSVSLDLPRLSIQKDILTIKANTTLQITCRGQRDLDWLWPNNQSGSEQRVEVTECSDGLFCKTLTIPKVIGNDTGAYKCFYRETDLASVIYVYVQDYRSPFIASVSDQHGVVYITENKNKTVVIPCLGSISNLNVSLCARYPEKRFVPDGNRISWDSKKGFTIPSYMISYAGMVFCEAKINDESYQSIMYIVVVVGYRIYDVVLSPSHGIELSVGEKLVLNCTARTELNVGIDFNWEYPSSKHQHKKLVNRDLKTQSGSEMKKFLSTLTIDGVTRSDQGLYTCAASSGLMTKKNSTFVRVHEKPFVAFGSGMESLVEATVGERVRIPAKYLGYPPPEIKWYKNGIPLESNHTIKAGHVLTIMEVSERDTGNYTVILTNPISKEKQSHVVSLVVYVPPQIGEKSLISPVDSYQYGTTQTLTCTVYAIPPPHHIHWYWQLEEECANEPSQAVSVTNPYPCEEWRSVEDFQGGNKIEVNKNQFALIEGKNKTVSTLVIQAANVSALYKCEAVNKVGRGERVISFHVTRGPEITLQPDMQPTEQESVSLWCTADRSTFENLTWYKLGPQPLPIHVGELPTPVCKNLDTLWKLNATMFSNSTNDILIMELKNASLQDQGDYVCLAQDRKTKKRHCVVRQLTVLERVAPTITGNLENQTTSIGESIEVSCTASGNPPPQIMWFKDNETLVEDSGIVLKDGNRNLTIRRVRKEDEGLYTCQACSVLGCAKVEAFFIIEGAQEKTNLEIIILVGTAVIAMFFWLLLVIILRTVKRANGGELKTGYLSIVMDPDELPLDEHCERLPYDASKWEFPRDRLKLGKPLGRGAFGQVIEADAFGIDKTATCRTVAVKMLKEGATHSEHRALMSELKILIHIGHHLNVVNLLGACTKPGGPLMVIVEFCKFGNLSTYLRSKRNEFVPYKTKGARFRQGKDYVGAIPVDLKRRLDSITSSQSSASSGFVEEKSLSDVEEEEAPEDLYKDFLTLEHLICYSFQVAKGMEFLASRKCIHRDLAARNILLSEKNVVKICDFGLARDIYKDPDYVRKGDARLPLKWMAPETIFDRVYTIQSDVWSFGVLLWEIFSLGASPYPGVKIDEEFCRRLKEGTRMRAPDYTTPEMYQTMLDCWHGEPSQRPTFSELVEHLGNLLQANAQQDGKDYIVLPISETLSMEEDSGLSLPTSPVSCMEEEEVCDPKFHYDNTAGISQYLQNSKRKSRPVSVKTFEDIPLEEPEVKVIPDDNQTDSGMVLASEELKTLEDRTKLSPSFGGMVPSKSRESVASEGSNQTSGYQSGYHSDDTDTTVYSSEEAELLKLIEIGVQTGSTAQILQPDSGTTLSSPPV
Chain of Receptor tyrosine-protein kinase erbB-2 (Homo sapiens) (P04626 whole entry): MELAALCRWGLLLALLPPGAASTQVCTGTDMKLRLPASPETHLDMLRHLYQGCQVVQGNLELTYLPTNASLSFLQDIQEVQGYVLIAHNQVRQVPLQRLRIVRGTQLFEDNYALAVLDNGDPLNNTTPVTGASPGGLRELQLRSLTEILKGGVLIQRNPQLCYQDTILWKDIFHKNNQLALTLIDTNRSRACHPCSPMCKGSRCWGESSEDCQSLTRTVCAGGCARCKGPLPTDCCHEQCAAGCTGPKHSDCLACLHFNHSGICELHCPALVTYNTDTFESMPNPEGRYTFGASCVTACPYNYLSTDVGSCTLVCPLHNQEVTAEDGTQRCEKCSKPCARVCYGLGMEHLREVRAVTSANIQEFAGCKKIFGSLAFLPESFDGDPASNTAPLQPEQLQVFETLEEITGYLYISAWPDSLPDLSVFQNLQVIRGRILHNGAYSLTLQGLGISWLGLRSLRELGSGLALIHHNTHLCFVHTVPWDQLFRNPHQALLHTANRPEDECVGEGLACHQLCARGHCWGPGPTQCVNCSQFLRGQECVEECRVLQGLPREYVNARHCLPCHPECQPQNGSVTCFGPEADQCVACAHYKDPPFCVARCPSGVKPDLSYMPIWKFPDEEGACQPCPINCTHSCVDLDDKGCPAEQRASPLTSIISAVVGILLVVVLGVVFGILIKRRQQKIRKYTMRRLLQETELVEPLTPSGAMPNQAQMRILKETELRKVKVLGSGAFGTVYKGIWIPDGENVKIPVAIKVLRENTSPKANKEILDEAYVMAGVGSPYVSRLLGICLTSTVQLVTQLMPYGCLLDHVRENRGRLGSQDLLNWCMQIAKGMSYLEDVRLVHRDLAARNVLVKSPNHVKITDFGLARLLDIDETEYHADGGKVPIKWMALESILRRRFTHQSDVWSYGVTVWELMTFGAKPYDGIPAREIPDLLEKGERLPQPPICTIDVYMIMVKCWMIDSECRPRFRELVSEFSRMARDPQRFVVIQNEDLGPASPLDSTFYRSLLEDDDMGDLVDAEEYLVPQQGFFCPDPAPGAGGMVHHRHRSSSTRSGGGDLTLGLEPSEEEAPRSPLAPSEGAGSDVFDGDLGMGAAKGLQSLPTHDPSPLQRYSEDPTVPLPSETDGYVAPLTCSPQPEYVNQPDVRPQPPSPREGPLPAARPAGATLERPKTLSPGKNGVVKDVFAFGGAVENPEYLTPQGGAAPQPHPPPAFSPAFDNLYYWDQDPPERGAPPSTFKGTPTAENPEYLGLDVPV
Chain of Tyrosine-protein kinase ABL1 (Homo sapiens) (P00519 whole entry): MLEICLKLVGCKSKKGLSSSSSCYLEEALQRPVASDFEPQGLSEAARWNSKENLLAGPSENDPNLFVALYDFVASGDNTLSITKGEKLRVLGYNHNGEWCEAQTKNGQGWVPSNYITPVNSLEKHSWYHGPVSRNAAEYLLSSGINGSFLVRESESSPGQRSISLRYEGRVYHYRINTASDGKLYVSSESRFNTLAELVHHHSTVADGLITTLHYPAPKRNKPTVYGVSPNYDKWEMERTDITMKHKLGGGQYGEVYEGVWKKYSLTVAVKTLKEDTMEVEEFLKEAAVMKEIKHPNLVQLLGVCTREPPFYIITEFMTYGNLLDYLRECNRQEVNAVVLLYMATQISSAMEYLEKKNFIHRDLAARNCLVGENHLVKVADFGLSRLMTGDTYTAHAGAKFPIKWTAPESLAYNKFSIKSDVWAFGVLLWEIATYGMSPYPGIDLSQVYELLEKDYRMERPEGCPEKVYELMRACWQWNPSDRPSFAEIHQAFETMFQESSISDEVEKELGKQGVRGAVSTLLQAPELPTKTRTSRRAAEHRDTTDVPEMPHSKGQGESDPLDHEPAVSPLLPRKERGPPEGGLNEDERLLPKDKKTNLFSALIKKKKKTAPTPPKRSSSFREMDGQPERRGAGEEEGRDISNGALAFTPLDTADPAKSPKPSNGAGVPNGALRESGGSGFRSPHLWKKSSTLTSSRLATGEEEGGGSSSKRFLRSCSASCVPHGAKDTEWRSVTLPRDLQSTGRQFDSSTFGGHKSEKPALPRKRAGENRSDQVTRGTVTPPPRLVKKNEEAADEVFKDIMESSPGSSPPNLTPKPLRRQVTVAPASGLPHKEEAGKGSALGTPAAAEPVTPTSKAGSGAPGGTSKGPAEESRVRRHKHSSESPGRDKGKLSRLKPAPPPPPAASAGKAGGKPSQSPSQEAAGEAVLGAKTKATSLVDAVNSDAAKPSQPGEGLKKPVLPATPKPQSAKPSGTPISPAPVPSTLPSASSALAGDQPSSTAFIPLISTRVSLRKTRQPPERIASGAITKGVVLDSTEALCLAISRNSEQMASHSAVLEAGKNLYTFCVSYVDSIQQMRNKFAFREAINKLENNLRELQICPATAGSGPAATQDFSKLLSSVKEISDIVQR

IC50 [11]: 0.1 µM | inhibition [18]: inactive | IC50 [20]: 0.024 µM | inhibition [24]: 87% | inhibition [28]: 98% | inhibition [29]: inactive | inhibition [35]: 10%
SMILES: O=C(c1cc2cc(O)ccc2[nH]1)c1cc2c(Nc3ccc(F)c(Cl)c3)ncnc2s1
IC50 [1]: 5.45 µM | IC50 [2]: 4.07 µM | IC50 [3]: 9.23 µM | IC50 [4]: 6.02 µM | IC50 [5]: 8.19 µM | IC50 (SAOS-2): 8.2 µM | IC50 (HCT-116): 7.69 µM | IC50 [6]: 3.37 µM | IC50 [7]: 6.02 µM | IC50 [8]: 6.34 µM | IC50 [9]: 7.04 µM | IC50 [10]: 4.87 µM | IC50 [12]: 4.87 µM | IC50 [13]: 8.85 µM | IC50 (MCF7): 4.22 µM | IC50 (CWR22R): 5.61 µM | IC50 [14]: 7.58 µM | IC50 (OVCAR-3): 9.08 µM | IC50 [15]: 5.87 µM | IC50 [16]: 5.97 µM | IC50 (LNCaP): 3.01 µM | IC50 [17]: 3.25 µM | IC50 [19]: 9.56 µM | IC50 [21]: 7.65 µM | IC50 [22]: 6.28 µM | IC50 [23]: 4.09 µM | IC50 (MKN-45): 7.26 µM | IC50 (TE-671): 10.1 µM | IC50 [25]: 3.45 µM | IC50 [26]: 9.59 µM | IC50 (CAL-27): 1.28 µM | IC50 [27]: 4.36 µM | IC50 (RKO): 6.01 µM | IC50 (HT-29): 13.7 µM | IC50 [30]: 0.94 µM | IC50 [31]: 5.89 µM | IC50 [32]: 9.08 µM | IC50 [33]: 2.65 µM | IC50 (NCI-H460): 6 µM | IC50 (PANC-1): 7.95 µM | IC50 [34]: 4.09 µM | IC50 (DU-145): 2.96 µM

inhibition [18]: inactive | IC50 [20]: 0.00593 µM | inhibition [24]: 60% | inhibition [28]: 96% | inhibition [29]: inactive | inhibition [35]: 55%
SMILES: COc1ccc2[nH]c(C(=O)c3cc4c(Nc5ccc(F)c(Cl)c5)ncnc4s3)cc2c1
IC50 [1]: 46.3 µM | IC50 [2]: 19 µM | IC50 [3]: 26.7 µM | IC50 [4]: 16.7 µM | IC50 [5]: 36 µM | IC50 (SAOS-2): 30.1 µM | IC50 (HCT-116): 12.1 µM | IC50 [6]: 10.2 µM | IC50 [7]: 9 µM | IC50 [8]: 15.4 µM | IC50 [9]: 9.3 µM | IC50 [10]: 30.4 µM | IC50 [12]: 14.8 µM | IC50 [13]: 14.1 µM | IC50 (MCF7): 11.3 µM | IC50 (CWR22R): 11.1 µM | IC50 [14]: 11.7 µM | IC50 (OVCAR-3): 24.6 µM | IC50 [15]: 21.1 µM | IC50 [16]: 24.8 µM | IC50 (LNCaP): 32.5 µM | IC50 [17]: 7.1 µM | IC50 [19]: 17.8 µM | IC50 [21]: 17.1 µM | IC50 [22]: 31 µM | IC50 [23]: 4.2 µM | IC50 (MKN-45): 38.2 µM | IC50 (TE-671): 55 µM | IC50 [25]: 4.9 µM | IC50 [26]: 62.9 µM | IC50 (CAL-27): 1.6 µM | IC50 [27]: 28.5 µM | IC50 (RKO): 15.8 µM | IC50 (HT-29): 9.8 µM | IC50 [30]: 1 µM | IC50 [31]: 14.4 µM | IC50 [32]: 24.6 µM | IC50 [33]: 5 µM | IC50 (NCI-H460): 15 µM | IC50 (PANC-1): 28.4 µM | IC50 [34]: 3.9 µM | IC50 (DU-145): 19.4 µM
